# System: yeast genes (level of expressed mRNA)
# Assay: DNA chip analysis of expressed mRNA of yeast genes after 2 h culture with a toxic chemical substance
# Type: cell-based, Saccharomyces cerevisiae S288C
# Settings: for The level of expressed mRNA in the presence of chemical substance/ (ratio to absence of chemical substance): stress protein genes, DNA chip
# Method: Yeast (Saccharomyces cerevtisiae S288C (α SUC2mal mel gap2 CUP1)) were cultured at 25° C. on YPD medium (yeast extract 1%, polypepton 2%, glucose 2%). One of toxic chemical substances was added to the cell at logarithmic growth phase, and the cell was further cultured for two hours. Cell was cultured without any chemical substance in the same condition, and was used as control. Concentrations of the chemical substances were defined to inhibit the growth of the yeast but not lead to death.
# After the completion of cultivation, the culture was centrifuged to collect the cells. To the cells, sodium acetate buffer (50 mM sodium acetate, 10 mM EDTA, 1% SDS) was added, and the mixture was shaken at 65° C. for five minutes, followed by returning to room temperature, and obtaining the supernatant, which procedure was repeated two times. To the supernatant, ½ amount of a solution of phenol/chloroform was added, and the mixture was centrifuged to give a supernatant, which was added with an equal amount of chloroform, and the mixture was centrifuged to give a supernatant. To the supernatant, an equal amount of isopropanol containing 0.3 M sodium acetate was added, and the mixture was allowed to stand at room temperature for 30 minutes, after which the mixture was centrifuged to give a sediment of the whole RNAs. Seventy % ethanol was added to the sediment, and the mixture was again centrifuged to give a sediment, which was then dried and dissolved in water. mRNA was isolated from the whole RNAs as followings. In view of the fact that a poly A chain is attached to the 3′ terminus of mRNA, a polynucleotide having a poly T structure which was immobilized on the surface of latex beads was used to trap the mRNA, and then the mRNA was washed and eluted with spine column (Oligotex-dT30<Super>mRNA Purification Kit, Takara). Reverse transcription of the mRNA was conducted with a reverse transcriptase (Super Script II Reverse Transcriptase; catalogue No. 18064-014, GibcoBRL) using fluorescence-labeled nucleotides to give cDNAs that were introduced with Cy3-dUTP or Cy5-dUTP during the reverse transcription.
# The labeled cDNAs were dissolved in TE buffer (10 mM Tris-HCl/1 mM EDTA, pH8.0), and the solution was dropped on the DNA chip containing the whole genes of yeast (DNA Chip Research Inc. Japan) so that the cDNAs were hybridized on the DNA chip at 65° C. for over 12 hours. The fluoresces intensity of the DNA chip was read with a scanner, and the ratio relative to the fluorescence intensity resulting from the absence of chemical substance was estimated as the following, which is shown in Tables 1 to 9: [formula]
# In the Tables, “Intensity” indicated in the rightmost column is a value of the level of expressed mRNA of each gene in control cells as divided by the average level of the expressions of the whole genes.
smiles,measurement,setting,value
"C=CC=O [(14), acrolein]",The level of expressed mRNA in the presence of chemical substance/absence: YOR267C,gene YOR267C,0.9
same,The level of expressed mRNA in the presence of chemical substance/absence: YOR325W,gene YOR325W,1.3
same,level of expressed mRNA in the presence of chemical substance/in its absence,gene YOR336W,1.1
same,level of expressed mRNA in the presence of chemical substance/in its absence,gene YOR344C,0.6
same,level of expressed mRNA in the presence of chemical substance/in its absence,gene YOR347C,0.9
same,The level of expressed mRNA in the presence of chemical substance/absence: YPL005W,gene YPL005W,1.0
same,level of expressed mRNA in the presence of chemical substance/in its absence,gene YPL017C,1.6
same,"The level of expressed mRNA in the presence of chemical substance / the level in the absence of chemical substance, yeast gene YPL107W","gene YPL107W, DNA chip fluorescence ratio to control without chemical, 2 hours culture with chemical, growth-inhibiting non-lethal concentration",1.7
same,"The level of expressed mRNA in the presence of chemical substance / the level in the absence of chemical substance, yeast gene YPL138C","gene YPL138C, DNA chip fluorescence ratio to control without chemical, 2 hours culture with chemical, growth-inhibiting non-lethal concentration",1.3
same,The level of expressed mRNA in the presence of chemical substance/absence: YPL150W,gene YPL150W,1.0
same,The level of expressed mRNA in the presence of chemical substance/absence: YPL151C,gene YPL151C,0.9
same,The level of expressed mRNA in the presence of chemical substance/absence: YPL152W,gene YPL152W,1.2
same,The level of expressed mRNA in the presence of chemical substance/absence: YPL168W,gene YPL168W,1.0
same,The level of expressed mRNA in the presence of chemical substance/absence: YPL180W,gene YPL180W,1.0
same,The level of expressed mRNA in the presence of chemical substance/absence: YPL188W,gene YPL188W,1.4
same,The level of expressed mRNA in the presence of chemical substance/absence: YPL221W,gene YPL221W,0.8
same,The level of expressed mRNA in the presence of chemical substance/absence: YPL225W,gene YPL225W,1.4
same,The level of expressed mRNA in the presence of chemical substance/absence: YPL249C,gene YPL249C,1.0
same,The level of expressed mRNA in the presence of chemical substance/absence: YPL260W,gene YPL260W,1.1
same,level of expressed mRNA in the presence of chemical substance/in its absence,gene YPL265W,1.1
same,level of expressed mRNA in the presence of chemical substance/in its absence,gene YPR006C,1.2
same,level of expressed mRNA in the presence of chemical substance/in its absence,gene YPR026W,1.5
same,The level of expressed mRNA in the presence of chemical substance/absence: YPR049C,gene YPR049C,1.4
same,The level of expressed mRNA in the presence of chemical substance/absence: YPR061C,gene YPR061C,1.7
same,The level of expressed mRNA in the presence of chemical substance/absence: YPR093C,gene YPR093C,1.1
same,The level of expressed mRNA in the presence of chemical substance/absence: YPR146C,gene YPR146C,0.9
same,The level of expressed mRNA in the presence of chemical substance/absence: YPR148C,gene YPR148C,1.1
same,The level of expressed mRNA in the presence of chemical substance/absence: YPR150W,gene YPR150W,1.4
same,The level of expressed mRNA in the presence of chemical substance/absence: YPR158W,gene YPR158W,1.1
same,The level of expressed mRNA in the presence of chemical substance/absence: YPR169W,gene YPR169W,1.0
same,The level of expressed mRNA in the presence of chemical substance/absence: YPR172W,gene YPR172W,1.6
same,The level of expressed mRNA in the presence of chemical substance/absence: YPR174C,gene YPR174C,0.9
same,The level of expressed mRNA in the presence of chemical substance/The level of expressed mRNA in the absence of chemical substance,yeast gene YAR010C,1.0
same,The level of expressed mRNA in the presence of chemical substance/The level of expressed mRNA in the absence of chemical substance,yeast gene YBL005W-A,1.4
same,"The level of expressed mRNA in the presence of chemical substance/ (ratio to absence), gene YBL038W","yeast gene YBL038W, mitochondria-located protein genes, 2 h culture with chemical",2.3
same,The level of expressed mRNA in the presence of chemical substance/The level of expressed mRNA in the absence of chemical substance,yeast gene YBL041W,2.0
same,The level of expressed mRNA in the presence of chemical substance/The level of expressed mRNA in the absence of chemical substance,yeast gene YBL043W,1.9
same,The level of expressed mRNA in the presence of chemical substance/The level of expressed mRNA in the absence of chemical substance,yeast gene YBL078C,3.6
same,The level of expressed mRNA in the presence of chemical substance/ (ratio to absence of chemical substance),yeast gene YBL093C,1.0
same,"The level of expressed mRNA in the presence of chemical substance/ (in its absence), gene YBR036C","yeast gene YBR036C, ratio of DNA chip fluorescence intensity to that without chemical substance",0.8
same,The level of expressed mRNA in the presence of chemical substance/ (ratio to absence of chemical substance),yeast gene YBR044C,0.9
same,"The level of expressed mRNA in the presence of chemical substance/ (ratio to absence), gene YBR122C","yeast gene YBR122C, mitochondria-located protein genes, 2 h culture with chemical",1.2
same,The level of expressed mRNA in the presence of chemical substance/The level of expressed mRNA in the absence of chemical substance,yeast gene YBR214W,0.9
same,"The level of expressed mRNA in the presence of chemical substance/ (ratio to absence), gene YBR251W","yeast gene YBR251W, mitochondria-located protein genes, 2 h culture with chemical",1.6
same,"The level of expressed mRNA in the presence of chemical substance/ (in its absence), gene YBR298C","yeast gene YBR298C, ratio of DNA chip fluorescence intensity to that without chemical substance",0.9
same,The level of expressed mRNA in the presence of chemical substance/The level of expressed mRNA in the absence of chemical substance,yeast gene YCL020W,1.7
same,The level of expressed mRNA in the presence of chemical substance/The level of expressed mRNA in the absence of chemical substance,yeast gene YCL027W,1.2
same,The level of expressed mRNA in the presence of chemical substance/The level of expressed mRNA in the absence of chemical substance,yeast gene YCR004C,3.7
same,"The level of expressed mRNA in the presence of chemical substance/ (ratio to absence), gene YCR046C","yeast gene YCR046C, mitochondria-located protein genes, 2 h culture with chemical",1.3
same,The level of expressed mRNA in the presence of chemical substance/The level of expressed mRNA in the absence of chemical substance,yeast gene YCR071C,1.7
same,"The level of expressed mRNA in the presence of chemical substance/ (ratio to absence), gene YCR083W","yeast gene YCR083W, mitochondria-located protein genes, 2 h culture with chemical",2.4
same,The level of expressed mRNA in the presence of chemical substance/ (ratio to absence of chemical substance),yeast gene YCR083W,2.4
same,The level of expressed mRNA in the presence of chemical substance/The level of expressed mRNA in the absence of chemical substance,yeast gene YCR088W,0.9
same,The level of expressed mRNA in the presence of chemical substance/The level of expressed mRNA in the absence of chemical substance,yeast gene YDL008W,2.2
same,"The level of expressed mRNA in the presence of chemical substance/ in its absence, gene YDL067C","yeast gene YDL067C, energy system protein genes, 2 h culture with the chemical, ratio to control without chemical",1.4
same,"The level of expressed mRNA in the presence of chemical substance/ (ratio to absence), gene YDL067C","yeast gene YDL067C, mitochondria-located protein genes, 2 h culture with chemical",1.4
same,"The level of expressed mRNA in the presence of chemical substance/ in its absence, gene YDL078C","yeast gene YDL078C, energy system protein genes, 2 h culture with the chemical, ratio to control without chemical",0.8

# From patent US20050112573A1, “Method of detecting toxic substance” (priority 2001, published 2005)
